Laboratory results from patent US20130196980A1, “[…], […] AND THERAPEUTIC AGENT FOR FIBROMYALGIA” (AXIS INC., priority 2010, published 2013).

System: anti-VGKC complex antibody positive patient with fibromyalgia
Assay: Pain-relieving experiment by an anticonvulsant agent (patient pain VAS)
Assay type: in vivo, human
Conditions: patient B; clonazepam 1.5 mg orally; non-depression type fibromyalgia, anti-VGKC complex antibody more than 100 pM
Description: Pain-relieving experiments by an anticonvulsant agent for each anti-VGKC complex antibody positive patient with fibromyalgia
It is considered that the pain can be relieved by an anticonvulsant agent for an anti-VGKC complex antibody positive patient with fibromyalgia. Thus, for 3 patients (to whom a level of anti-VGKC complex antibody of more than 100 pM was detected) among 4 anti-VGKC complex antibody positive patients with fibromyalgia in Example 1, a pain-relieving experiment by an anticonvulsant agent for an anti-VGKC complex antibody positive patient with fibromyalgia was conducted. These patients were patients with fibromyalgia of non-depression type.
To patient A, gabapentine 900 mg and clonazepam 0.5 mg were orally administered. As a result, the value of patient pain VAS was reduced to 40 based on 100 before administration.
To patient B, clonazepam 1.5 mg was orally administered. As a result, the value of patient pain VAS was reduced to 30 based on 100 before administration.
To patient C, gabapentine 1600 mg and clonazepam 1.0 mg were orally administered. As a result, the value of patient pain VAS was reduced to 20 based on 100 before administration.

O=C1CN=C(c2ccccc2Cl)c2cc([N+](=O)[O-])ccc2N1 [clonazepam]
value of patient pain VAS after administration, based on 100 before administration: 30
